Laboratory results from patent publication US20250313563A1, “GLYCOGEN SYNTHASE KINASE 3 INHIBITORS AND USES THEREOF” (The Broad Institute, Inc., priority 2022, published 2025).
Where two headings read alike, the source gives them in different places.

Assays:
[1] = target: GSK3α (GST-full length GSK3α) (Homo sapiens (Human), UniProt P49840); test: GSK3α TR-FRET kinase assay; format: biochemical
Summary of the method: (§1)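 Readout: anti-pSer641 Tb antibody/streptavidin-d2 signal after 60 min, expressed as 665/615 ratio and fitted versus log concentration for IC50. Enzyme: 1 nM GST-GSK3 (α or β), compound-preincubated 30 min. Conditions: pH 7.5 Tris buffer with MgCl2, DTT, BSA; ATP at 4 or 2 μM, or 1 mM; 100 min.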

[2] = target: GSK3b (GST-full length GSK3b) (Homo sapiens (Human), UniProt P49841); test: GSK3b TR-FRET kinase assay; format: biochemical
Sequence of GSK3b (GST-full length GSK3b) (P49841 whole entry): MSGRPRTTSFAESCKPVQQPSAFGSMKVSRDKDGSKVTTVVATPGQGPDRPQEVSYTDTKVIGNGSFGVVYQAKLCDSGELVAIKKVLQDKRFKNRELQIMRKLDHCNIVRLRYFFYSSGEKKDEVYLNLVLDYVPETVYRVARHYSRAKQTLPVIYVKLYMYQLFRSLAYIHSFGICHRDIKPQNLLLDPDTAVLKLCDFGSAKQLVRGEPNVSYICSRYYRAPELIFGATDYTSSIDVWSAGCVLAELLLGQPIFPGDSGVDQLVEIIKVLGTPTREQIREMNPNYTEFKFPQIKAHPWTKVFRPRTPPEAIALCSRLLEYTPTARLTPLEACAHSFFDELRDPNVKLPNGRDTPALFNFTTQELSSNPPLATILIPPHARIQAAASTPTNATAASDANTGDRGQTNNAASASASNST
Summary of the method: as §1

[3] = 1 nM GSK3α, 4 μM ATP, 30 minute preincubation, geometric mean, read-out: GSK3-A TR-FRET BIOCHEMICAL (TR-FRET), GMean, IC50
[4] = 1 nM GSK3b, 2 μM ATP, 30 minute preincubation, geometric mean, read-out: GSK3-B TR-FRET BIOCHEMICAL (TR-FRET), GMean, IC50
[5] = 1 nM GSK3α, 4 μM ATP, 30 minute preincubation, Table 16, read-out: GSK3-A TR-FRET BIOCHEMICAL (TR-FRET), IC50
[6] = 1 nM GSK3b, 2 μM ATP, 30 minute preincubation, Table 16, read-out: GSK3-B TR-FRET BIOCHEMICAL (TR-FRET), IC50
[7] = 1 nM GSK3α, 4 μM ATP, 30 minute preincubation, Table 16, read-out: GSK3-A TR-FRET BIOCHEMICAL (TR-FRET)
[8] = 1 nM GSK3b, 2 μM ATP, 30 minute preincubation, Table 16, read-out: GSK3-B TR-FRET BIOCHEMICAL (TR-FRET)
[9] = read-out: GSK3-A (TR-FRET 1 mM ATP), GMean, IC50, 1 mM ATP, geometric mean
[10] = read-out: GSK3-B (TR-FRET 1 mM ATP), GMean, IC50, 1 mM ATP, geometric mean

Sequence of GSK3α (GST-full length GSK3α) (P49840 whole entry): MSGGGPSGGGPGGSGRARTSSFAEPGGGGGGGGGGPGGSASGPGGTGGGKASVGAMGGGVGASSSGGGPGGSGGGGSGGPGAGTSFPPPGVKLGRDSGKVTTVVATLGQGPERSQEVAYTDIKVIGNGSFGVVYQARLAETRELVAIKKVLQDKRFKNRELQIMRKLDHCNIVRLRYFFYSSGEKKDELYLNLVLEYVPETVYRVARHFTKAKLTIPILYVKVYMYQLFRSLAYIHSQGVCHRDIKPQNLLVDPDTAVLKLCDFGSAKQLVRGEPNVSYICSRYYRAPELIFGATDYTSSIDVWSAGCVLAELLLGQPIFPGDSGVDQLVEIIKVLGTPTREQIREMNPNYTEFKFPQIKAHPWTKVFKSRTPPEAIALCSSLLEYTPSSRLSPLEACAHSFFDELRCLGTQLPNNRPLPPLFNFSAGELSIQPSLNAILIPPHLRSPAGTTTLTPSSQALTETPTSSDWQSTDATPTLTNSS

Row | Structure (SMILES) | IC50 [1, 5] [nM] | IC50 [2, 6] [nM] | IC50 [1, 7] [nM] | IC50 [2, 8] [nM] | other results
1 | CCC1(c2cccc(N(C)C(C)=O)c2)C2=C(CC(C)(C)CC2=O)Nc2n[nH]cc21 (centres unmarked) [Compound 801319] | – | – | – | – | IC50 [1, 3]: ≤ 100 nM; IC50 [2, 4]: ≤ 100 nM
2 | CCN(C(C)=O)c1cccc([C@]2(CC)C3=C(CC(C)(C)CC3=O)Nc3n[nH]cc32)c1 [Compound 909214] | ≤ 100 | ≤ 100 | – | – | –
3 | CC1(C)CC(=O)C2=C(C1)Nc1n[nH]cc1C21CCN(S(=O)(=O)c2cccc3ccncc23)CC1 [Compound 947901] | – | – | ≤ 100 | ≤ 100 | –
4 | CCC1(c2cccc(-c3cn[nH]c3)c2)C2=C(CC(C)(C)NC2=O)Nc2n[nH]c(C(F)(F)F)c21 (centres unmarked) [Compound 947677] | – | – | – | – | IC50 [1, 3]: ≤ 100 nM; IC50 [2, 4]: ≤ 100 nM
5 | CCC1(c2cccc(N(c3cccnc3)C(C)C)c2)C2=C(CC(C)(C)CC2=O)Nc2n[nH]cc21 (centres unmarked) [Compound 885344] | ≤ 100 | ≤ 100 | – | – | –
6 | CC1(C)CC(=O)C2=C(C1)Nc1n[nH]cc1C21CCN(S(=O)(=O)c2ccccc2C#N)CC1 [Compound 947479] | – | – | ≤ 100 | ≤ 100 | –
7 | CCC1(c2cccc(CN(C)C(C)=O)c2)C2=C(CC(C)(C)CC2=O)Nc2n[nH]cc21 (centres unmarked) [Compound 865194] | – | – | – | – | IC50 [1, 3]: 100 to 1000 nM; IC50 [2, 4]: 1000 to 5000 nM
8 | CCC1(c2cccc(-c3c(C)cnn3C)c2)C2=C(CC(C)(C)CC2=O)Nc2n[nH]cc21 (centres unmarked) [Compound 947491] | – | – | ≤ 100 | ≤ 100 | –
9 | CC[C@]1(c2cccc(C3CC3)c2)C2=C(CC(C)(C)NC2=O)Nc2n[nH]cc21 [Compound 950817] | > 5000 | > 5000 | – | – | –
10 | CCC1(c2cccc(C3CCCC3)c2)C2=C(CC(C)(C)CC2=O)Nc2n[nH]cc21 (centres unmarked) [Compound 949397] | – | – | – | – | IC50 [1, 9]: 100 to 1000 nM; IC50 [2, 10]: 1000 to 5000 nM
11 | CC[C@@]1(c2cccc(-c3ccncc3F)c2)C2=C(CC(C)(C)NC2=O)Nc2n[nH]c(Cl)c21 [Compound 949757] | ≤ 100 | ≤ 100 | – | – | IC50 [1, 9]: 100 to 1000 nM; IC50 [2, 10]: 1000 to 5000 nM
12 | CCC1(c2cccc(-c3ccncc3OC)c2)C2=C(CC(C)(C)CC2=O)Nc2n[nH]cc21 (centres unmarked) [Compound 932627] | ≤ 100 | ≤ 100 | – | – | –
13 | CCC1(c2cccc(-c3ccncn3)c2)C2=C(CC(C)(C)CC2=O)Nc2n[nH]cc21 (centres unmarked) [Compound 806637] | – | – | – | – | IC50 [1, 3]: ≤ 100 nM; IC50 [2, 4]: 100 to 1000 nM
14 | CC1(C)CC(=O)C2=C(C1)Nc1n[nH]cc1[C@@]21CCCC(C)(C)C1 [Compound 883846] | – | – | 100 to 1000 | 1000 to 5000 | –
15 | CC1(C)CC(=O)C2=C(C1)Nc1n[nH]cc1C21CN(C(=O)OCc2ccccc2)C1 [Compound 889568] | – | – | 100 to 1000 | 1000 to 5000 | –
16 | CC[C@H]1C[C@]2(CCO1)C1=C(CC(C)(C)CC1=O)Nc1n[nH]cc12 [Compound 924311] | 100 to 1000 | 1000 to 5000 | – | – | –
17 | Cc1cc(S(=O)(=O)N2CCC3(CC2)C2=C(CC(C)(C)CC2=O)Nc2n[nH]cc23)ccc1OC(C)C [Compound 945678] | – | – | ≤ 100 | 100 to 1000 | –
18 | CCC1(c2cccc(N(C)c3cccc(F)n3)c2)C2=C(CC(C)(C)CC2=O)Nc2n[nH]cc21 (centres unmarked) [Compound 918274] | ≤ 100 | 100 to 1000 | – | – | –
19 | Cc1cc(S(=O)(=O)N2CCC3(CC2)C2=C(CC(C)(C)CC2=O)Nc2n[nH]cc23)c(C)s1 [Compound 945674] | – | – | ≤ 100 | 100 to 1000 | –
20 | CCC1(c2cccc(-c3ccnc(OC)c3)c2)C2=C(CC(C)(C)CC2=O)Nc2n[nH]cc21 (centres unmarked) [Compound 911989] | 1000 to 5000 | > 5000 | – | – | –
21 | CC[C@@]1(c2cccc(N3CCC3(C)C)c2)C2=C(CC(C)(C)CC2=O)Nc2n[nH]cc21 [Compound 913140] | ≤ 100 | 100 to 1000 | – | – | –

Row | Structure (SMILES) | IC50 [1, 5] [nM] | IC50 [2, 6] [nM] | IC50 [1, 7] [nM] | IC50 [2, 8] [nM] | other results
22 | CCC1(c2cccc(C(F)(F)F)c2)C2=C(CCN(c3nn(C)cc3C)C2=O)Nc2n[nH]cc21 (centres unmarked) [Compound 950486] | 100 to 1000 | 1000 to 5000 | – | – | –
23 | CC[C@]1(c2cccc(-c3cnn(C)c3)c2)C2=C(CC(C)(C)NC2=O)Nc2n[nH]c(C)c21 [Compound 945611] | – | – | – | – | IC50 ([1]; 1 nM GSK3α, 4 μM ATP, 30 minute preincubation, read-out: GSK3-A TR-FRET BIOCHEMICAL (TR-FRET), IC50): > 5000 nM; IC50 ([2]; 1 nM GSK3b, 2 μM ATP, 30 minute preincubation, read-out: GSK3-B TR-FRET BIOCHEMICAL (TR-FRET), IC50): > 5000 nM
24 | CCC1(c2cccc(-c3ccnc(C)c3)c2)C2=C(Nc3n[nH]cc31)C(F)C(C)(C)CC2=O (centres unmarked) [Compound 946102] | – | – | 1000 to 5000 | > 5000 | –
25 | CC[C@]1(c2cccc(-c3cn(C)nc3C)c2)C2=C(CC(C)(C)CC2=O)Nc2n[nH]c(C)c21 [Compound 913035] | ≤ 100 | ≤ 100 | – | – | IC50 [1, 9]: ≤ 100 nM; IC50 [2, 10]: 100 to 1000 nM
26 | CC1(C)CC(=O)C2=C(C1)Nc1n[nH]cc1[C@]21CCC[C@H](C#N)C1 [Compound 946078] | 1000 to 5000 | > 5000 | – | – | –
27 | CC[C@@]1(c2cccc(-c3cnn(C)c3)c2)C2=C(CC(C)(C)NC2=O)Nc2n[nH]c(C(F)F)c21 [Compound 949919] | ≤ 100 | ≤ 100 | – | – | IC50 [1, 9]: ≤ 100 nM; IC50 [2, 10]: 100 to 1000 nM
28 | CCC1(c2cccc(N3CCOc4ncccc43)c2)C2=C(CC(C)(C)CC2=O)Nc2n[nH]cc21 (centres unmarked) [Compound 918279] | ≤ 100 | ≤ 100 | – | – | –
29 | CC[C@]1(c2cccc(-c3ccnc4ccccc34)c2)C2=C(CC(C)(C)CC2=O)Nc2n[nH]cc21 [Compound 944031] | – | – | ≤ 100 | ≤ 100 | –
30 | CCc1cc(N(C)c2cccc(C3(CC)C4=C(CC(C)(C)CC4=O)Nc4n[nH]cc43)c2)ccn1 (centres unmarked) [Compound 945600] | – | – | 100 to 1000 | 1000 to 5000 | –
31 | CCc1cc(N(C)c2cccc(C3(CC)C4=C(CC(C)(C)CC4=O)Nc4n[nH]cc43)c2)ccn1 (centres unmarked) [Compound 917147] | ≤ 100 | 100 to 1000 | – | – | –
32 | CC1(C)CC(=O)C2=C(C1)Nc1n[nH]cc1C21CCN(S(=O)(=O)c2cnc3ccccn23)CC1 [Compound 947610] | – | – | ≤ 100 | ≤ 100 | –
33 | CCC1(c2cccc(-c3ccncc3F)c2)C2=C(CC(C)(C)CC2=O)Nc2n[nH]cc21 (centres unmarked) [Compound 883986] | ≤ 100 | ≤ 100 | – | – | –
34 | CCC1(c2cccc(-c3ccncc3)c2)C2=C(CC(C)CC2=O)Nc2n[nH]cc21 (centres unmarked) [Compound 874315] | – | – | – | – | IC50 [1, 3]: 1000 to 5000 nM; IC50 [2, 4]: > 5000 nM
35 | CC[C@@]1(c2cccc(-c3cnn4c3CCCC4)c2)C2=C(CC(C)(C)NC2=O)Nc2[nH]nc(C(F)(F)F)c21 [Compound 948775] | – | – | – | – | IC50 [1, 3]: ≤ 100 nM; IC50 ([1]; GSK3-A (TR-FRET 1 mM ATP), GMean, IC50, 1 mM ATP, geometric mean): ≤ 100 nM; IC50 [2, 4]: ≤ 100 nM; IC50 ([2]; GSK3-B (TR-FRET 1 mM ATP), GMean, IC50, 1 mM ATP, geometric mean): 100 to 1000 nM
36 | CC1(C)CC(=O)C2=C(C1)Nc1n[nH]cc1C21CCC(F)(F)CC1 [Compound 883972] | – | – | ≤ 100 | 100 to 1000 | –
37 | CC1(C)CC(=O)C2=C(C1)Nc1n[nH]cc1[C@]21CCCc2ccccc21 [Compound 930566] | ≤ 100 | 100 to 1000 | – | – | –
38 | CCC1(c2cccc(Oc3cncnc3)c2)C2=C(CC(C)(C)CC2=O)Nc2n[nH]cc21 (centres unmarked) [Compound 945939] | – | – | 100 to 1000 | > 5000 | –
39 | CC1CC(=O)C2=C(C1)Nc1n[nH]cc1C21CCOCC1 (centres unmarked) [Compound 884112] | 100 to 1000 | 100 to 1000 | – | – | –
40 | CC[C@]1(c2cccc(Oc3ncccn3)c2)C2=C(CC(C)(C)NC2=O)Nc2n[nH]cc21 [Compound 949330] | ≤ 100 | 100 to 1000 | – | – | –
41 | CCC1(c2cccc(-n3ccnc3)c2)C2=C(CC(C)(C)CC2=O)Nc2n[nH]cc21 (centres unmarked) [Compound 874533] | – | – | – | – | IC50 [1, 3]: 100 to 1000 nM; IC50 [2, 4]: > 5000 nM
42 | CC1(C)CC(=O)C2=C(C1)Nc1n[nH]cc1C21CN(c2ccccc2)C1 [Compound 948298] | – | – | ≤ 100 | ≤ 100 | –
